Source: article PMC3815946 (Microbial biotechnology, 2009)
Read-outs that look alike come from different tables or passages of the source.

Columns and labels:
3A6 [1] = test: steady-state hydrolysis kinetics, Hanes-Woolf plot; type: biochemical; conditions: read-out: 3A6 / Km; 100 mM Tris-sulfate, pH 8.5, 40 °C, enzyme 0-12 nM
3A6 [2] = test: steady-state hydrolysis kinetics, Hanes-Woolf plot; type: biochemical; conditions: read-out: 3A6I / Km; 100 mM Tris-sulfate, pH 8.5, 40 °C, enzyme 0-12 nM

| Km (3A6 [1]) | Km (3A6 [2]) | Structure (SMILES) |
| --- | --- | --- |
| 1960 ± 370 µM | – | COc1cc(/C=C/C(=O)OC[C@@H]2O[C@@H](O[C@@H]3[C@@H](O)[C@H](O[C@@H]4COC(O)[C@H](O)[C@H]4O)OC[C@H]3O)[C@H](O)[C@H]2O)ccc1O (stereo partly drawn) [FAXX, (5‐O‐(trans‐feruloyl)‐α‐L‐arabinofuranosyl)‐(1,3)‐β‐D‐xylopyranosyl‐(1,4)‐D‐xylopyranose] |
| 2340 ± 370 µM | – | COC(=O)/C=C/c1ccc(O)c(OC)c1 [Methyl ferulate] |
| 1550 ± 110 µM | – | COC(=O)/C=C/c1ccc(O)cc1 [Methyl p-coumarate] |
| 970 ± 30 µM | – | COc1cc(/C=C/C(=O)OC[C@@H]2O[C@@H](Oc3ccc([N+](=O)[O-])cc3)[C@H](O)[C@H]2O)ccc1O [Nph-5-Fe-Araf, p‐nitrophenyl 5‐O‐trans‐feruloyl‐α‐L‐arabinofuranoside] |
| 180 ± 90 µM | 3480 ± 210 µM | CC(=O)Oc1ccc([N+](=O)[O-])cc1 [p-Nitrophenyl acetate] |

Further lines, the compound ahead of its results:

| Structure (SMILES) | Km (3A6 [1]) | Km (3A6 [2]) |
| --- | --- | --- |
| COC(=O)/C=C/c1cc(OC)c(O)c(OC)c1 [Methyl sinapinate] | 400 ± 80 µM | – |
| CCCC(=O)Oc1ccc([N+](=O)[O-])cc1 [p-Nitrophenyl butyrate] | 240 ± 20 µM | 890 ± 70 µM |
| CCCCCC(=O)Oc1ccc([N+](=O)[O-])cc1 [p-Nitrophenyl hexanoate] | 1530 ± 90 µM | – |
| CCC(=O)Oc1ccc([N+](=O)[O-])cc1 [p-Nitrophenyl propionate] | 150 ± 90 µM | – |
